The record followed here is patent US8716231B2, “Use of benzo-fused heterocycle sulfamide derivatives for the treatment of pain” (Janssen Pharmaceutica NV, priority 2005, dated 2014).

Series [1] deals with Taxol®-induced mechanical allodynia. The experiment in a line: Taxol Induced Peripheral Neuropathy Model (pilot), Von Frey testing. It counts as in vivo, Sprague-Dawley rats. Conditions: Taxol 2 mg/kg i.p. days 1, 3, 5, 7 + HPMC vehicle; day 12 (baseline 16.42±2.14 g). As for the experimental part: In addition, the compound's effects on spontaneous locomotor activity was measured.
The animals were housed in polycarbonate plastic cages, 2 animals per cage, at a temperature of 18-26° C., 30-70% humidity, 12-hour light/dark cycle, with food and water available ad libityum.
On days 1, 3, 5, and 7, the rats received an ip (intraperitoneal) injection of Taxol® (2 mg/kg).
Two behavioral tests were performed: measurement of tactile sensitivity and spontaneous locomotor activity. At baseline and on Days 5 and 12 post-Taxol® injection, the animals underwent Von Frey testing for mechanical allodynia (according to the procedure as described in Chaplan, S R, Bach, F W, Pogrel, J W, Chung, J M, Yaksh, T L. Quantitative assessment of tactile allodynia in the rat paw. J Neurosci Meth, 53:55-63, 1994). Tactile sensitivity (i.e. mechanical allodynia) was measured using calibrated filaments touched to the plantar surface of the affected limb to determine paw withdrawal threshold. Briefly, the rats were placed in a Plexiglas cage with a wire mesh bottom and allowed to acclimate for 10 minutes. Once the animals settled, the plantar surface of the right hind paw was touched with a 2.0 g von Frey filament. […] Data were analyzed using two-way ANOVA, one-way ANOVA and Dunnett's test, with statistical significance at p<0.05.

As for `NS(=O)(=O)NCC1CCc2ccccc2O1` (stereo not drawn), the melting point was 100 to 101 °C.

Take `NS(=O)(=O)NCCC1COc2ccccc2O1` (stereo not drawn): the melting point fell in the range of 101 to 103 °C.

Molecule `NS(=O)(=O)NC[C@H]1COc2cc(Cl)c(Cl)cc2O1` returned a melting point of 119 to 121 °C.

With `CN(C)S(=O)(=O)NCC1COc2ccccc2O1` (stereo not drawn), the melting point was 76 to 78 °C.

Regarding `CN(CC1COc2ccccc2O1)S(N)(=O)=O` (stereo not drawn), the melting point lay within 97 to 98 °C.

As to `CC(=O)O[C@H]1C(=O)[C@@]2(C)[C@H]([C@H](OC(=O)c3ccccc3)[C@]3(O)C[C@H](OC(=O)[C@H](O)[C@@H](NC(=O)c4ccccc4)c4ccccc4)C(C)=C1C3(C)C)[C@]1(OC(C)=O)CO[C@@H]1C[C@@H]2O` [Taxol®, paclitaxel, reference compound], the “paw withdrawal threshold (mechanical allodynia)” value in series [1] was determined as 12.11 ± 4.92 g.

For orientation: melting point means the temperature of the solid-liquid transition.
